Patent US20020155106A1 (priority 2000, published 2002)
Ends that are not written are not given here. amino resin = not defined here; spacer = not defined here

Assays:
[1] = biological target: alpha-1-proteinase inhibitor (API) (Homo sapiens, UniProt P01009); type: binding
PPV [2] = type: binding, porcine parvovirus
PPV [3] = type: binding, porcine parvovirus; remark: listed apart in the source
HAV [4] = type: binding, hepatitis A virus
PRV [5] = type: binding, pseudorabies virus
SV40 = type: binding, simian virus 40
HAV [6] = type: binding, hepatitis A virus; remark: listed apart in the source
PRV [7] = type: binding, pseudorabies virus; settings: peptide resin
HIV = type: binding, human immunodeficiency virus
BVDV = type: binding, bovine viral diarrhea virus
Polio Virus = type: binding, poliovirus

alpha-1-proteinase inhibitor (API), sequence (P01009 25-418): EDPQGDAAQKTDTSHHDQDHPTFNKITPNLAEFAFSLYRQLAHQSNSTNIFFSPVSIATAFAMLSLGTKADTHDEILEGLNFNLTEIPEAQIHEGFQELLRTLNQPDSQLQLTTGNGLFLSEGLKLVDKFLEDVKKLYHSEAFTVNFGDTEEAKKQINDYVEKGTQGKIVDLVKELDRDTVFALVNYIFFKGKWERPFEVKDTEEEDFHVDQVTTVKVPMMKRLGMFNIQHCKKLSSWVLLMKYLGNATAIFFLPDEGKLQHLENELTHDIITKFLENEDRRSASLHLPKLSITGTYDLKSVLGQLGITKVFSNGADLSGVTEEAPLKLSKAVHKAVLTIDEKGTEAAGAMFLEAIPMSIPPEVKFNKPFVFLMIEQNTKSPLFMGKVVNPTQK

RDYDTD: Table 2 sample 2
binding to API [1]: API-binding

NFZQNT: Table 2 sample 7
binding to API [1]: API-binding

Acetyl-FLLPYK: N-acetylated FLLPYK on resin (Ac-FLLPYK)
logs reduction (clearance) of PPV in column flow-through (PPV [2]): no clearance

SDLRRL: Table 2 sample 4
binding to API [1]: API-binding

amino-FLLP: truncated peptide on resin (on resin)
logs reduction (clearance) of PPV in column flow-through (PPV [2]): no significant clearance

FLLYAK: also Table 4 sample 46
binds PPV (sequences that bind to all three viruses) (PPV [3]): bind | binds HAV (sequences that bind to all three viruses) (HAV [4]): bind | binds PRV (sequences that bind to all three viruses) (PRV [5]): bind

SKNNAA: Table 2 sample 8
binding to API [1]: API-binding

FLLFQP: Table 1 sample 5
Screen (positive bead, ligand identified for virus) (SV40): SV40

APPRTV: Table 2 sample 5
binding to API [1]: API-binding

AQTFHD: Table 2 sample 1
binding to API [1]: API-binding

LKRIEY: Table 2 sample 3
binding to API [1]: API-binding

FLLPYK: consensus peptide synthesized onto amino resin with a spacer at the carboxy terminal (FLLPYK-{spacer-amino resin}; not fully specified; reading uncertain)
logs reduction (clearance) of PPV in column flow-through (PPV [2]): five | binds HAV (HAV [6]): binds | binds PRV (PRV [7]): binds | binds HIV (HIV): binds | binds BVDV (BVDV): binds

FLLIDA: Table 1 sample 8
Screen (positive bead, ligand identified for virus) (Polio Virus): Polio

VLYTNN: Table 2 sample 6
binding to API [1]: API-binding
